molecular target: T1, human GCS (glucosylceramide synthase) (Homo sapiens, UniProt Q16739); test: Glucosylceramide Synthase (GCS) Assay; type: biochemical; settings: test compound 10 μM; microsome fraction of Expi293F cells expressing human GCS; 1.7 μM UDP-glucose, 3 μM C8 ceramide; room temperature 60 min; C8 glucosylceramide by Rapidfire MS/MS; read-out: GCS enzyme inhibitory rate at 10 μM (%)
T1 construct: made in house; host or cells: Expi293F cells (transient expression; microsome fraction)
T1 sequence (Q16739 1-394): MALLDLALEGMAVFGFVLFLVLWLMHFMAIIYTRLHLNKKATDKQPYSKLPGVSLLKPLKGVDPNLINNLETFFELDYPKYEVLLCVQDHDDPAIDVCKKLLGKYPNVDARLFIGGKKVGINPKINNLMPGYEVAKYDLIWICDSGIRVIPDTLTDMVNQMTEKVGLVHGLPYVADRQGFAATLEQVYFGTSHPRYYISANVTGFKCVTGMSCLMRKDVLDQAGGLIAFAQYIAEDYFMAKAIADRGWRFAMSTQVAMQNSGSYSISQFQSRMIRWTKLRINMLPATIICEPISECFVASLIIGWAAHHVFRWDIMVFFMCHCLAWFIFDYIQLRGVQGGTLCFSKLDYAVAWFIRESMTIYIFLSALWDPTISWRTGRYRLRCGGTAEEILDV
Method in brief: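 Enzyme source was a microsome fraction from Expi293F cells transiently expressing human GCS. Reaction ran 60 min at room temperature in 20 mM Tris pH 7.5 with 1.7 μM UDP-glucose (Km) and 3 μM liposomal C8 ceramide, compound at 10 μM final. C8 glucosylceramide quantified by RapidFire MS/MS; inhibition scaled between enzyme-free and DMSO controls.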

SMILES	inhibition at 10 µM [%]
O=C(Nc1ccc(C(O)(C(F)F)C(F)F)nc1)c1cn(CC(F)F)nc(-c2ccccc2OCC(F)F)c1=O [Example 186, 6-[2-(2,2-difluoroethoxy)phenyl]-2-(2,2-difluoroethyl)-5-oxo-N-[6-(1,1,3,3-tetrafluoro-2-hydroxypropan-2-yl)pyridin-3-yl]-2,5-dihydropyridazine-4-carboxamide]	100
CC(=O)c1cc(C(=O)Nc2ccc(OC(F)F)cc2)c(=O)n(-c2ccccc2OCC(F)(F)F)n1 [Example 197, 6-acetyl-N-[4-(difluoromethoxy)phenyl]-3-oxo-2-[2-(2,2,2-trifluoroethoxy)phenyl]-2,3-dihydropyridazine-4-carboxamide]	99
CCOC(=O)c1cc(C(=O)Nc2ccc(OC(F)F)cc2)c(=O)n(-c2ccccc2OCC(F)(F)F)n1 [Example 198, ethyl 5-{[4-(difluoromethoxy)phenyl]carbamoyl}-6-oxo-1-[2-(2,2,2-trifluoroethoxy)phenyl]-1,6-dihydropyridazine-3-carboxylate]	98
Cn1cc(C(=O)Nc2ccc(C(C)(C)C#N)cc2)c(=O)c(-c2ccccc2OCC(F)F)n1 [Example 172, N-[4-(2-cyanopropan-2-yl)phenyl]-6-[2-(2,2-difluoroethoxy)phenyl]-2-methyl-5-oxo-2,5-dihydropyridazine-4-carboxamide]	100
CC(C)(O)Cn1cc(C(=O)Nc2ccc(OC(F)F)cc2)c(=O)c(-c2ccccc2OCC(F)F)n1 [Example 173, 6-[2-(2,2-difluoroethoxy)phenyl]-N-[4-(difluoromethoxy)phenyl]-2-(2-hydroxy-2-methylpropyl)-5-oxo-2,5-dihydropyridazine-4-carboxamide]	95
Cc1cc(C(=O)Nc2ccc(C(C)(C)O)cc2Cl)c(=O)n(-c2ccccc2OCC(F)F)n1 [Example 149, N-[2-chloro-4-(2-hydroxypropan-2-yl)phenyl]-2-[2-(2,2-difluoroethoxy)phenyl]-6-methyl-3-oxo-2,3-dihydropyridazine-4-carboxamide]	100
Cn1cc(C(=O)Nc2ccc(C(O)(C(F)F)C(F)F)cc2)c(=O)c(-c2ccccc2OCC(F)F)n1 [Example 159, 6-[2-(2,2-difluoroethoxy)phenyl]-2-methyl-5-oxo-N-[4-(1,1,3,3-tetrafluoro-2-hydroxypropan-2-yl)phenyl]-2,5-dihydropyridazine-4-carboxamide]	100
COc1ccccc1-n1c(C)ccc(C(=O)Nc2ccc(Oc3ccccc3)cc2)c1=O [Example 1, 1-(2-methoxyphenyl)-6-methyl-2-oxo-N-(4-phenoxyphenyl)-1,2-dihydropyridine-3-carboxamide]	71
Cc1cc(C(=O)Nc2ccc(C(C)(C)O)cc2)c(=O)n(-c2ccccc2OCC(F)F)n1 [Example 136, 2-[2-(2,2-difluoroethoxy)phenyl]-N-[4-(2-hydroxypropan-2-yl)phenyl]-6-methyl-3-oxo-2,3-dihydropyridazine-4-carboxamide]	100
O=C(Nc1ccc(C(O)(C(F)F)C(F)F)nc1)c1cn(C2CCOC2)nc(-c2ccccc2OCC(F)F)c1=O (racemic) [Example 195, rac-6-[2-(2,2-difluoroethoxy)phenyl]-5-oxo-2-(oxolan-3-yl)-N-[6-(1,1,3,3-tetrafluoro-2-hydroxypropan-2-yl)pyridin-3-yl]-2,5-dihydropyridazine-4-carboxamide]	100
Cc1cc(C(=O)Nc2ccc(C(C)(C)O)cn2)c(=O)n(-c2ccccc2OCC(F)F)n1 [Example 137, 2-[2-(2,2-difluoroethoxy)phenyl]-N-[5-(2-hydroxypropan-2-yl)pyridin-2-yl]-6-methyl-3-oxo-2,3-dihydropyridazine-4-carboxamide]	99
O=C(Nc1ccc(Cl)cc1)c1cccn(-c2ccccc2OCC(F)(F)F)c1=O [Example 14, N-(4-chlorophenyl)-2-oxo-1-[2-(2,2,2-trifluoroethoxy)phenyl]-1,2-dihydropyridine-3-carboxamide]	99

Other lines, results leading:

inhibition at 10 µM [%]	SMILES
95	O=C(Nc1ccc(C(=O)N2CCCCC2)cc1)c1cccn(-c2ccc(F)cc2OCC(F)(F)F)c1=O [Example 43, 1-[4-fluoro-2-(2,2,2-trifluoroethoxy)phenyl]-2-oxo-N-[4-(piperidine-1-carbonyl)phenyl]-1,2-dihydropyridine-3-carboxamide]
100	O=C(Nc1ccc(C(O)(C(F)F)C(F)F)cc1)c1cccn(-c2ccc(F)cc2OCC(F)(F)F)c1=O [Example 78, 1-[4-fluoro-2-(2,2,2-trifluoroethoxy)phenyl]-2-oxo-N-[4-(1,1,3,3-tetrafluoro-2-hydroxypropan-2-yl)phenyl]-1,2-dihydropyridine-3-carboxamide]
99	CC(C)(O)COc1cc(F)ccc1-n1cccc(C(=O)Nc2ccc(C(O)(C(F)(F)F)C(F)(F)F)cc2)c1=O [Example 105, 1-[4-fluoro-2-(2-hydroxy-2-methylpropoxy)phenyl]-N-[4-(1,1,1,3,3,3-hexafluoro-2-hydroxypropan-2-yl)phenyl]-2-oxo-1,2-dihydropyridine-3-carboxamide]
99	O=C(Nc1ccc(OCC(F)(F)F)nc1)c1cncn(-c2ccc(F)cc2OCC(F)(F)F)c1=O [Example 93, 1-[4-fluoro-2-(2,2,2-trifluoroethoxy)phenyl]-6-oxo-N-[6-(2,2,2-trifluoroethoxy)pyridin-3-yl]-1,6-dihydropyrimidine-5-carboxamide]
99	O=C(Nc1ccc(COCC(F)(F)F)nc1)c1cccn(-c2ccccc2OCC(F)(F)F)c1=O [Example 74, 2-oxo-N-{6-[(2,2,2-trifluoroethoxy)methyl]pyridin-3-yl}-1-[2-(2,2,2-trifluoroethoxy)phenyl]-1,2-dihydropyridine-3-carboxamide]
70	O=C(Nc1cnn(CC(F)(F)F)c1)c1cccn(-c2ccc(F)cc2OCC(F)(F)F)c1=O [Example 48, 1-[4-fluoro-2-(2,2,2-trifluoroethoxy)phenyl]-2-oxo-N-[1-(2,2,2-trifluoroethyl)-1H-pyrazol-4-yl]-1,2-dihydropyridine-3-carboxamide]
83	O=C(Nc1cnc(C(F)(F)F)cn1)c1cccn(-c2ccc(F)cc2OCC(F)(F)F)c1=O [Example 37, 1-[4-fluoro-2-(2,2,2-trifluoroethoxy)phenyl]-2-oxo-N-[5-(trifluoromethyl)pyrazin-2-yl]-1,2-dihydropyridine-3-carboxamide]
99	CC(C)(O)c1ccc(NC(=O)c2cccn(-c3ccccc3OCC(F)(F)F)c2=O)cc1F [Example 82, N-[3-fluoro-4-(2-hydroxypropan-2-yl)phenyl]-2-oxo-1-[2-(2,2,2-trifluoroethoxy)phenyl]-1,2-dihydropyridine-3-carboxamide]
69	O=C(Nc1cnn(CC2CC2)c1)c1cccn(-c2ccc(F)cc2OCC(F)(F)F)c1=O [Example 40, N-[1-(cyclopropylmethyl)-1H-pyrazol-4-yl]-1-[4-fluoro-2-(2,2,2-trifluoroethoxy)phenyl]-2-oxo-1,2-dihydropyridine-3-carboxamide]
90	CC(O)(c1ccc(NC(=O)c2cccn(-c3ccnnc3OCC(F)(F)F)c2=O)cn1)C(F)(F)F (racemic) [Example 121, rac-2-oxo-1-[3-(2,2,2-trifluoroethoxy)pyridazin-4-yl]-N-[6-(1,1,1-trifluoro-2-hydroxypropan-2-yl)pyridin-3-yl]-1,2-dihydropyridine-3-carboxamide]
60	O=C(Nc1cnn(CC2(F)CC2)c1)c1cccn(-c2ccc(F)cc2OCC(F)(F)F)c1=O [Example 66, N-{1-[(1-fluorocyclopropyl)methyl]-1H-pyrazol-4-yl}-1-[4-fluoro-2-(2,2,2-trifluoroethoxy)phenyl]-2-oxo-1,2-dihydropyridine-3-carboxamide]
89	CC(C)(O)COc1cc(F)ccc1-n1cccc(C(=O)Nc2ccc(OCC(F)(F)F)nc2)c1=O [Example 67, 1-[4-fluoro-2-(2-hydroxy-2-methylpropoxy)phenyl]-2-oxo-N-[6-(2,2,2-trifluoroethoxy)pyridin-3-yl]-1,2-dihydropyridine-3-carboxamide]
85	O=C(Nc1ccc(CN2CCOCC2)cc1)c1cccn(-c2ccc(F)cc2OCC(F)(F)F)c1=O [Example 35, 1-[4-fluoro-2-(2,2,2-trifluoroethoxy)phenyl]-N-{4-[(morpholin-4-yl)methyl]phenyl}-2-oxo-1,2-dihydropyridine-3-carboxamide]
95	CC(C)(O)Cc1ccc(NC(=O)c2cccn(-c3ccc(F)cc3OCC(F)(F)F)c2=O)cc1 [Example 61, 1-[4-fluoro-2-(2,2,2-trifluoroethoxy)phenyl]-N-[4-(2-hydroxy-2-methylpropyl)phenyl]-2-oxo-1,2-dihydropyridine-3-carboxamide]
97	O=C(Nc1ccc(OCC(F)(F)F)nc1)c1ccnn(-c2ccc(F)cc2OCC(F)(F)F)c1=O [Example 29, 2-[4-fluoro-2-(2,2,2-trifluoroethoxy)phenyl]-3-oxo-N-[6-(2,2,2-trifluoroethoxy)pyridin-3-yl]-2,3-dihydropyridazine-4-carboxamide]

Reference: patent publication US20220289679A1, “HETEROCYCLIC COMPOUND” (Takeda Pharmaceutical Company Limited, priority 2019, published 2022)
